The subject of data set [1] is Corynebacterium diphtheriae. Also noted: method as in PMID 29138439. The note with it: cited from earlier work.
Another data set has as its system Ebola virus. The note with it: cited from earlier work.
For the next data set, the system named is HSV-2. The note with it: cited from earlier work.
Data set [2] relates to A/NY/61/LV16A (H1N1). Put plainly: H1N1 NP mRNA by qRT-PCR in A549 cells treated with autophagy inhibitors. Format: cell-based, influenza virus. In general terms: In qPCR the cycle at which signal appears reflects the starting amount.
The test system of data set [3] is A/NY/61/LV16A (H1N1). Put plainly: CPE inhibition assay. Format: cell-based.
The next data set relates to A/17/HK/2014/8296 (H3N2). Nature of the data set: CPE inhibition assay. Format: cell-based.
In data set [4] the test system is A/Maonan/SWL1536/2019 (H1N1). Put plainly: CPE inhibition assay. Type of data set: cell-based.
In the next data set the test system is B/Washington/02/2019. Put plainly: CPE inhibition assay. Type of data set: cell-based.
The subject of data set [5] is influenza virus strains (H1N1, H3N2, influenza B virus). Nature of the data set: CPE inhibition assay, all influenza virus strains tested. Format: cell-based. The note with it: unidentified influenza virus; range over five strains, MDCK cells; read-out: EC50 values ranging, all influenza virus strains tested.
Data set [6] concerns A/NY/61/LV16A (H1N1). Put plainly: H1N1 RNA replication by qRT-PCR in MDCK cells. Type of data set: cell-based, influenza virus.
Data set [7] concerns A/NY/61/LV16A (H1N1). Type of data set: in vivo, BALB/c mice. The note with it: for survival rate: 5 mg/kg i.p. once daily for 6 days, H1N1 i.n., 14 days; for H1N1 virus titers in the lungs compared to placebo / lung histopathology changes (H&E) / lung index compared to placebo / lung viral load compared to placebo: mouse, in vivo, ip.
In data set [8] the test system is A/NY/61/LV16A (H1N1). Nature of the data set: Viral nucleoprotein (NP) by Western blotting. Format: cell-based, influenza virus.
Data set [9] concerns A/NY/61/LV16A (H1N1). Format: cell-based. The note with it: 15 μM, A549 cells, MOI = 1, 16 hpi, vs virus control.
The test system of data set [10] is A/NY/61/LV16A (H1N1). Nature of the data set: Binding assay. Type of data set: cell-based, influenza virus.
Data set [11] deals with A/NY/61/LV16A (H1N1). Nature of the data set: Entry assay. Format: cell-based, influenza virus.
The subject of a further data set is Rab7. Type of data set: cell-based. The note with it: 15 µM, A549 cells, 3 hpi.
A further data set concerns LC3B-II and p62. Put plainly: Autophagy markers by Western blotting in A549 cells. Format: cell-based. The note with it: dose- and time-dependent. In general terms: Immunoblotting shows a protein as a band on a membrane.
Data set [12] has as its system A/NY/61/LV16A (H1N1). Nature of the data set: Time of addition assay. Type of data set: cell-based, influenza virus.
The conditions of data set [13]: uninfected mice, 5 mg/kg i.p.
A short description of data set [14]: in vitro. The note with it: dog.
The nature of data set [15]: in vitro. The note with it: human.
Data set [16] can be described thus: Cytotoxicity, CellTiter-Glo cell viability. The note with it: dog, uninfected MDCK cells. (ATP-based viability assays read luminescence as a measure of living cells.)
The mark [17] stands for this setting: Influenza A virus, H1N1, MDCK; read-out: EC50 ± SD A/NY/61/LV16A (H1N1).
Setting [18] is: Influenza A virus, H1N1; MDCK cells; read-out: EC90 (approximately).
[19] abbreviates: Influenza A virus, H3N2, MDCK; read-out: EC50 ± SD A/17/HK/2014/8296 (H3N2).
Where [20] appears, read: Influenza A virus, H1N1, MDCK; read-out: EC50 ± SD A/Maonan/SWL1536/2019 (H1N1).
[21] abbreviates: Influenza B virus; B/M2; infected MDCK cells, MOI = 0.01, 48 hpi; read-out: EC50 ± SD B/Washington/02/2019.

Entries after “also recorded” stand apart in the source; their conditions may differ. Where a name gives a salt, the structure may show the parent alone. Read-outs that look alike come from different tables or passages of the source. Bounds are passed on as bounds.

Turning to `CC(N)C12CC3CC(CC(C3)C1)C2` (stereo not shown) [1-(1-adamantyl) ethylamine], the “activity against Corynebacterium diphtheriae” value in [1] was “inactive”. In addition, the “activity against Ebola virus” value in the data set with Ebola virus was “inactive”. Further, in the data set with HSV-2, the “activity against HSV-2 infection” value was “inactive”.
Regarding `Cn1cnc(N)c2ncnc1-2` [3-MA, 3-methyladenine], the “H1N1 RNA content” value in the data set on A/NY/61/LV16A (H1N1) [2] is recorded as “significantly decreased”.
For `COc1ccc(Br)cc1CNC12CC3CC(CC(C3)C1)C2` [ABMA, 1-adamantyl (5-bromo-2-methoxybenzyl) amine], the EC50 in the data set with A/NY/61/LV16A (H1N1) [3] (setting [17]) was 3.25 ± 0.17 µM. The EC90 – broadly, the point of the concentration-response curve where the effect stands at 90% – in the data set with A/NY/61/LV16A (H1N1) [3] (setting [18]) is around 15 µM. Moreover, the EC50 in the data set on A/17/HK/2014/8296 (H3N2) (setting [19]) stood at 5.58 ± 0.38 µM. In data set [4] (setting [20]), the EC50 amounted to 4.57 ± 0.33 µM. In addition, the EC50 with B/Washington/02/2019 (setting [21]) worked out at 7.36 ± 0.65 µM. Moreover, the EC50 in data set [5] was 2.83 to 7.36 µM. For the same molecule, the “inhibition of H1N1 RNA replication (qRT-PCR)” value in the data set on A/NY/61/LV16A (H1N1) [6] is 81.77%. For the same molecule, in the data set with A/NY/61/LV16A (H1N1) [7], the survival rate is reported as 67%, the “H1N1 virus titers in the lungs compared to placebo” value is “lower titers”, the “lung histopathology changes (H&E)” value is “significant reduction” and the “lung index compared to placebo” value is “significantly reduced”. The “lung viral load compared to placebo” value in the data set on A/NY/61/LV16A (H1N1) [7] was “significantly reduced”. The “NP expression levels (Western blot)” value with A/NY/61/LV16A (H1N1) [8] was “reduced; also recorded: decreased”. Further, the NP fluorescence signal result with A/NY/61/LV16A (H1N1) [9] is on record as “significantly decreased”. Further, the “binding of the virus to cells” value in the data set on A/NY/61/LV16A (H1N1) [10] is “do not affect”. The “entry stage of H1N1” value with A/NY/61/LV16A (H1N1) [11] is reported as “significantly inhibited”. Moreover, the Rab7 protein fluorescence result in the data set on Rab7 is “largely increased”. In the data set on LC3B-II and p62, the LC3B-II level result was “increased” and the p62 level result is “increased”. Moreover, in the data set on A/NY/61/LV16A (H1N1) [12], the “H1N1 RNA content, time of addition” value is “significantly reduced”. Also, the “changes in animal behavior, lethargy and body weight” value in [13] was “No remarkable changes”. Also, the CC50 at 72 h in “in vitro [14]” came out at 72.3 ± 1.09 µM. Besides, in the data set “in vitro [15]”, the CC50 worked out at 83.8 ± 1.92 µM.
As for `NC12CC3CC(CC(C3)C1)C2` [Amantadine, Amantadine hydrochloride], the EC50 was 9.97 ± 1.34 µM in the data set on A/NY/61/LV16A (H1N1) [3] (setting [17]); 8.27 ± 0.66 µM in the data set with A/17/HK/2014/8296 (H3N2) (setting [19]); 20.2 ± 1.36 µM in data set [4] (setting [20]); above 100 µM with B/Washington/02/2019 (Influenza B virus, MDCK, read-out: EC50 ± SD B/Washington/02/2019). For the same molecule, in the data set on B/Washington/02/2019, the “antiviral activity against B/Washington/02/2019 (IBV)” value is reported as “did not show antiviral activity; also recorded: no significant protection”. Besides, the “activity against Corynebacterium diphtheriae” value in [1] was “inactive”. In addition, in the data set with Ebola virus, the “activity against Ebola virus” value was “inactive”. Further, in the data set on HSV-2, the “activity against HSV-2 infection” value is “inactive”. This molecule showed a CC50 in “in vitro [14]” of 477 ± 39.5 µM.
Take `CO/C1=C\C(C)=C\[C@@H](C)[C@@H](O)[C@@H](C)C/C(C)=C/C=C/[C@H](OC)[C@@H]([C@@H](C)[C@@H](O)[C@H](C)[C@@]2(O)C[C@@H](O)[C@H](C)[C@@H](C(C)C)O2)OC1=O` [Baf A1, Bafilomycin A1, reference compound]: the “NP expression levels (Western blot)” value with A/NY/61/LV16A (H1N1) [8] is “decreased”. Moreover, the “H1N1 RNA content” value in the data set with A/NY/61/LV16A (H1N1) [2] is “significantly decreased”.
`CCN(CC)CCCC(C)Nc1ccnc2cc(Cl)ccc12` (stereo not shown) [Chloroquine, reference compound]: the EC50 in the data set on A/NY/61/LV16A (H1N1) [3] (setting [17]) is 17.1 ± 2.27 µM; in the data set on A/17/HK/2014/8296 (H3N2) (setting [19]), 12 ± 1.26 µM.
With `COc1ccc(Br)cc1CNC12CC3CC(C)(CC(C)(C3)C1)C2` [DABMA, 1,3-dimethyl-1-adamantyl (5-bromo-2-methoxybenzyl) amine], the EC50 in the data set with A/NY/61/LV16A (H1N1) [3] (setting [17]) was found to be 1.82 ± 0.11 µM. Besides, in the data set on A/NY/61/LV16A (H1N1) [3] (setting [18]), the EC90 was around 15 µM. In the data set with A/17/HK/2014/8296 (H3N2) (setting [19]), the EC50 turned out to be 6.73 ± 0.73 µM. Further, the EC50 in [4] (setting [20]) came out at 2.69 ± 0.26 µM. For the same molecule, the EC50 in the data set on B/Washington/02/2019 (setting [21]) came out at 6.62 ± 0.46 µM. Also, the EC50 in [5] was 1.82 to 6.73 µM. The “inhibition of H1N1 RNA replication (qRT-PCR)” value with A/NY/61/LV16A (H1N1) [6] is given as 86.51%. Also, in the data set on A/NY/61/LV16A (H1N1) [7], the survival rate was determined as 67%, the “H1N1 virus titers in the lungs compared to placebo” value is on record as “lower titers”, the “lung histopathology changes (H&E)” value is “significant reduction” and the “lung index compared to placebo” value is reported as “significantly reduced”. Moreover, the “lung viral load compared to placebo” value in the data set with A/NY/61/LV16A (H1N1) [7] is reported as “significantly reduced”. In the data set with A/NY/61/LV16A (H1N1) [8], the “NP expression levels (Western blot)” value is “reduced”. In addition, the NP fluorescence signal entry in the data set on A/NY/61/LV16A (H1N1) [9] was “significantly decreased”. Moreover, the “binding of the virus to cells” value with A/NY/61/LV16A (H1N1) [10] was “do not affect”. The “entry stage of H1N1” value in the data set on A/NY/61/LV16A (H1N1) [11] was “significantly inhibited”. Also, the “H1N1 RNA content, time of addition” value in the data set on A/NY/61/LV16A (H1N1) [12] is “significantly reduced”. Further, the “changes in animal behavior, lethargy and body weight” value in data set [13] is reported as “No remarkable changes”. In the data set “in vitro [14]”, this molecule displayed a CC50 at 72 h of 42.7 ± 1.46 µM. Besides, the CC50 in the data set “in vitro [15]” came to 47.4 ± 1.68 µM.
On to `CCOC(=O)C1=C[C@@H](OC(CC)CC)[C@H](NC(C)=O)[C@@H](N)C1` [Oseltamivir, Oseltamivir phosphate], for which the EC50 came to 7.97 ± 0.85 µM in the data set on A/NY/61/LV16A (H1N1) [3] (setting [17]); 7.3 ± 0.79 µM with A/17/HK/2014/8296 (H3N2) (setting [19]); 2.95 ± 0.21 µM in data set [4] (setting [20]); 8.53 ± 1.64 µM in the data set with B/Washington/02/2019 (Influenza B virus, MDCK; read-out: EC50 ± SD B/Washington/02/2019). In the data set “in vitro [14]”, this molecule came in with a CC50 at 72 h of 1890 ± 71.8 µM.
For `NC(=O)c1ncn([C@@H]2O[C@H](CO)[C@@H](O)[C@H]2O)n1` [Ribavirin, ribavirin], the EC50 amounted to 1.61 ± 0.62 µM in the data set with A/NY/61/LV16A (H1N1) [3] (Influenza A virus, H1N1, MDCK, read-out: EC50 ± SD A/NY/61/LV16A (H1N1)); 0.13 ± 0.04 µM with A/17/HK/2014/8296 (H3N2) (Influenza A virus, H3N2, MDCK, read-out: EC50 ± SD A/17/HK/2014/8296 (H3N2)); 3.2 ± 0.34 µM in [4] (Influenza A virus, H1N1, MDCK, read-out: EC50 ± SD A/Maonan/SWL1536/2019 (H1N1)); 3.02 ± 0.39 µM in the data set with B/Washington/02/2019 (setting [21]). This molecule also showed a CC50 at 72 h in [16] of 5480 ± 255 µM.
As for `CC12CC3CC(C)(C1)CC(N)(C3)C2` [memantine], the “activity against Corynebacterium diphtheriae” value in data set [1] was “inactive”. The “activity against Ebola virus” value in the data set with Ebola virus is “inactive”. For the same molecule, the “activity against HSV-2 infection” value in the data set on HSV-2 was “inactive”.

These data come from paper PMC8999625, “Antiviral Effects of ABMA and DABMA against Influenza Virus In Vitro and In Vivo via Regulating the Endolysosomal Pathway and Autophagy” (International Journal of Molecular Sciences, 2022).
